According to US20250270170A1, “2,3-DIMETHOXY-5-METHYL-1,4-BENZOQUINONE ALKYL ALCOHOL DERIVATIVE AND USE THEREOF” (BEIJING ANJIANXI BIO-MEDICAL TECHNOLOGY CO., LTD., priority 2021, published 2025):
Several values for one entry are separate records, joined by “and”; a condition that tells them apart may be missing. Equal values may be shown once. Marks after values point to notes of the source that are not given here.

What was measured:
[1] = tested on: human non-small cell lung cancer A549 transplanted tumor; experiment: Example 9: tumor growth in A549 transplanted tumor model; assay type: in vivo, nude mice
Text: Human non-small cell lung cancer cells A549 were obtained from the Cell Bank of the Type Culture Collection Committee of Chinese Academy of Sciences (CAS, cryopreserved in liquid nitrogen in this assay). […] On D1 of the assay, the A549 cells in the logarithmic growth phase were collected, counted and resuspended in PBS, and the cell concentration was adjusted to 8×10^7 cells/mL. The cells were pipetted with a pipette to disperse them evenly, and the cells were put into a 50-mL centrifuge tube, which was placed in an ice box. A 1-mL syringe was used to draw the cell suspension, which was injected subcutaneously into the axilla of the front right limb of a nude mouse. Each animal was inoculated with 100 μL (8×10^6 cells/mouse) to establish an A549 transplanted tumor model in nude mice. After the inoculation, the animal status and tumor growth were regularly observed. On D18, the tumor diameter was measured using an electronic vernier caliper. The data were input into an Excel spreadsheet to calculate the tumor volume. Tumor-bearing mice in good health and with similar tumor volumes (101 to 156 mm^3) were selected and divided into groups using randomized block method. After the start of the assay, the tumor diameter was measured regularly, the tumor volume was calculated, and the animal body weight was also weighed and recorded. On the last day of the assay, CO2 inhalation anesthesia was used on the animals 1 hour after the administration (R01). Blood was collected through the heart, and a part of the whole blood was added with EDTA-K2 for anticoagulation. The plasma was separated by centrifugation at 4° C. and 1500 g for 10 minutes. The plasma was collected, and stored in a −40° C. to −20° C. freezer (if necessary, it can be used for the determination of the plasma drug concentration). No anticoagulant was added to the other part of the whole blood, and the serum was separated by centrifugation after the blood coagulated, which was used for the detection of blood urea nitrogen. After the blood collection, the tumor tissue was collected, weighed and photographed. Then, the tumor was divided into two parts, quickly cryopreserved by liquid nitrogen, and transferred to a −90° C. to −60° C. freezer for storage. […] [table]

[2] = tested on: cisplatin-induced acute kidney damage in mice; experiment: Example 11: serum creatinine (Cre) in cisplatin-induced acute kidney damage model; assay type: in vivo, C57BL/6J mice; settings: for Serum creatinine (Cre) level after the assay, x (mean): group mean; for Serum creatinine (Cre) level after the assay, x (mean) / Serum creatinine (Cre) level after the assay: cisplatin model; for Serum creatinine (Cre) level after the assay: individual animals No. 1-7
Experimental: 42 male C57BL/6J mice (age: 6 to 8 weeks, body weight 18-20 g, certificate number: 11400700238365) were purchased from Si Pei Fu (Beijing) Biotechnology Co., Ltd., and raised in an SPF-grade animal room of the Institute of Materia Medica, Chinese Academy of Medical Sciences, at a temperature of 20 to 25° C., a relative humidity of 40% to 70%, and a cycle of 12 hours of light and 12 hours of dark. The animals had free access to water and food. After 3 days of normal feeding, mice with good physical conditions after the veterinary examination were selected for this assay. Before grouping, a marker was used to mark on the base of the animals' tail. After grouping, each animal was marked with an ear cutout (7 mice in each group).
Assay animals: 42 7-week-old male C57 mice were used for animal testing after an adaptive feeding.
Group 1: blank control group;
The preparation of the R01 formulation administration test solution was the same as that in Example 5: an appropriate amount of the R01 formulation was weighed according to the three dosages set in the assay, respectively, and an appropriate volume of 0.5% CMC-Na aqueous solution was added. The mixture was vortexed and sonicated until mixed evenly, to give the administration test solutions with concentrations of […], respectively, which were ready for use.
Animal testing period: 7 days (excluding adaptive feeding), hereinafter referred to as: D1-D7.
1. The first group was a solvent control group: N=7, all mice were males (the same below); • a) 0.5% solution of sodium carboxymethyl cellulose was gavagely administered from D1 to D6 (twice a day for each animal, with an interval of 8 hours between the morning and the afternoon). • b) Physiological saline was intraperitoneally injected in one-time on D4. • c) On D7, blood was collected from the orbit for euthanasia (300 ul of serum was extracted), the left kidney was fixed in formaldehyde, and the right kidney was preserved in liquid nitrogen (WB study may be carried out).
1) The concentrations of urea nitrogen and creatinine in peripheral blood serum were tested.
The body weight of the animals when being grouped for administration in each group was recorded. The body weight and the kidney weight at the end of the assay were also recorded, and the kidney coefficient was calculated. The creatinine and urea nitrogen values in the blood samples sent for testing were recorded. The kidneys were stained with HE and PAS, and the slides were scanned. A report was issued after the pathological analysis.
The assay data were calculated and processed statistically using Microsoft Office Excel 2007 software. Unless otherwise specified, the data were expressed as mean±standard error (Mean±SE), and t-test was used for comparison between two groups.

[3] = D21, DDP 5/7/7/7 mg/kg i.p. QW×4
[4] = D25, DDP 5/7/7/7 mg/kg i.p. QW×4
[5] = D28, DDP 5/7/7/7 mg/kg i.p. QW×4
[6] = D32, DDP 5/7/7/7 mg/kg i.p. QW×4
[7] = D35, DDP 5/7/7/7 mg/kg i.p. QW×4
[8] = D39, DDP 5/7/7/7 mg/kg i.p. QW×4
[9] = D42, DDP 5/7/7/7 mg/kg i.p. QW×4
[10] = D46, DDP 5/7/7/7 mg/kg i.p. QW×4

N.N.[Cl][Pt][Cl] [DDP, cisplatin]
Mean tumor volume ([1]; D18, DDP 4 mg/kg i.p. QW×4): 127 ± 6 mm^3 | Mean tumor volume ([1]; D18, DDP 5/7/7/7 mg/kg i.p. QW×4): 130 ± 5 mm^3 | Mean tumor volume ([1]; D21, DDP 4 mg/kg i.p. QW×4): 210 ± 10 mm^3 | tumor growth inhibition rate (TGI) ([1]; D21, DDP 4 mg/kg i.p. QW×4): (−1.0%) | Mean tumor volume [1, 3]: 208 ± 11 mm^3 | tumor growth inhibition rate (TGI) [1, 3]: (4.7%) | Mean tumor volume ([1]; D25, DDP 4 mg/kg i.p. QW×4): 297 ± 20** mm^3 | tumor growth inhibition rate (TGI) ([1]; D25, DDP 4 mg/kg i.p. QW×4): (37%) | Mean tumor volume [1, 4]: 308 ± 23** mm^3 | tumor growth inhibition rate (TGI) [1, 4]: (34%) | Mean tumor volume ([1]; D28, DDP 4 mg/kg i.p. QW×4): 418 ± 28** mm^3 | tumor growth inhibition rate (TGI) ([1]; D28, DDP 4 mg/kg i.p. QW×4): (29%) | Mean tumor volume [1, 5]: 428 ± 30** mm^3 | tumor growth inhibition rate (TGI) [1, 5]: (27%) | Mean tumor volume ([1]; D32, DDP 4 mg/kg i.p. QW×4): 561 ± 35** mm^3 | tumor growth inhibition rate (TGI) ([1]; D32, DDP 4 mg/kg i.p. QW×4): (27%) | Mean tumor volume [1, 6]: 562 ± 41** mm^3 | tumor growth inhibition rate (TGI) [1, 6]: (28%) | Mean tumor volume ([1]; D35, DDP 4 mg/kg i.p. QW×4): 670 ± 56** mm^3 | tumor growth inhibition rate (TGI) ([1]; D35, DDP 4 mg/kg i.p. QW×4): (26%) | Mean tumor volume [1, 7]: 696 ± 52* mm^3 | tumor growth inhibition rate (TGI) [1, 7]: (22%) | Mean tumor volume ([1]; D39, DDP 4 mg/kg i.p. QW×4): 914 ± 89** mm^3 | tumor growth inhibition rate (TGI) ([1]; D39, DDP 4 mg/kg i.p. QW×4): (30%) | Mean tumor volume [1, 8]: 892 ± 86** mm^3 | tumor growth inhibition rate (TGI) [1, 8]: (33%) | Mean tumor volume ([1]; D42, DDP 4 mg/kg i.p. QW×4): 1110 ± 119 mm^3 | tumor growth inhibition rate (TGI) ([1]; D42, DDP 4 mg/kg i.p. QW×4): (23%) | Mean tumor volume [1, 9]: 1099 ± 85* mm^3 | tumor growth inhibition rate (TGI) [1, 9]: (24%) | Mean tumor volume ([1]; D46, DDP 4 mg/kg i.p. QW×4): 1333 ± 176 mm^3 | tumor growth inhibition rate (TGI) ([1]; D46, DDP 4 mg/kg i.p. QW×4): (20%) | Mean tumor volume [1, 10]: 1236 ± 32* mm^3 | tumor growth inhibition rate (TGI) [1, 10]: (27%) | effect on growth of the A549 transplanted tumor (summary) ([1]; DDP 4 or 5/7/7/7 mg/kg QW, R01 formulation 18 or 36 mg/kg BID, combinations 18+5/7/7/7 and 36+4): no significant effect

COC1=C(OC)C(=O)C(CCCCCCCCCCOC(=O)Cc2c(C)n(C(=O)c3ccc(Cl)cc3)c3ccc(OC)cc23)=C(C)C1=O [compound of formula (I)]
serum creatinine value ([2]; cisplatin 10 mg/kg alone (vs blank, P<0.01) or with amifostine 50 mg/kg i.p. / R01 6, 18, 36 mg/kg bid): equivalent to that of the blank control group | Serum creatinine (Cre) level after the assay, x (mean) ([2]; R01 6 mg/kg): 18.4 mg/dL | Serum creatinine (Cre) level after the assay, x (mean) ([2]; R01 18 mg/kg): 15.4 mg/dL | Serum creatinine (Cre) level after the assay, x (mean) ([2]; R01 36 mg/kg): 15.3 mg/dL | Serum creatinine (Cre) level after the assay ([2]; R01 6 mg/kg, listed as R01, 6 mg/kg): 20 mg/dl (2×) and 23 mg/dl and 26 mg/dl and 17 mg/dl and 18 mg/dl and 5 mg/dl | Serum creatinine (Cre) level after the assay ([2]; R01 18 mg/kg, listed as R01, 18 mg/kg): 15 mg/dl (2×) and 12 mg/dl (2×) and 17 mg/dl and 16 mg/dl and 21 mg/dl | Serum creatinine (Cre) level after the assay ([2]; R01 36 mg/kg, listed as R01, 36 mg/kg): 15 mg/dl (3×) and 13 mg/dl and 17 mg/dl and 16 mg/dl (2×)
